Values of other authors as cited in patent US12576064B2, “Urolithin gummy (pectin) formulations” (Amazentis SA, priority 2023, dated 2026).

Test system: myotubes
Details: in vitro

Row | Structure (SMILES) | mean diameter of myotubes
1 | O=c1oc2cc(O)ccc2c2ccc(O)cc12 [Urolithin A] | not seen
2 | O=c1oc2cc(O)ccc2c2ccccc12 [Urolithin B] | increased
